Measurements taken from patent US12491233B2, “Pharmaceutical composition, for preventing or treating Charcot-Marie-Tooth disorder, comprising mesenchymal stem cells or insulin secreted by mesenchymal stem cells” (SAMSUNG LIFE PUBLIC WELFARE FOUNDATION, priority 2020, dated 2025).

Key:
Schwann cells [1] = assay: CCK-8 cell proliferation of insulin-treated Schwann cells; type: cell-based; settings: for CCK-8: relative to 0 nM = 1
Method: (§1) The cultured Schwann cells were treated with insulin at 0, 1, 10, 50, 100, 200, 500, or 1000 nM, and then the degree of cell proliferation was determined by measurement of the absorbance at 450 nm using a spectrophotometer by using the CCK-8 (Dojindo) test method. ATP was measured using the CellTiter-Glo Luminescent Cell Viability Assay (Promega Corporation), and finally, 5-bromo-2′-deoxyuridine (BrdU) bound during DNA synthesis in cells was identified. In this test method, analysis was performed using Cell Proliferation ELISA, BrdU (colorimetric) (Roche). BrdU was added to the cells, followed by incubation for 24 hours, and then the cells were fixed, followed by DNA denaturation, and then treated with Anti-BrdU antibody. The cells were incubated with TMB substrate by using HRP-linked secondary antibody, and the absorbance at 370 nm was measured in a spectrophotometer.

Schwann cells [2] = assay: ATP measurement, CellTiter-Glo Luminescent Cell Viability Assay; type: cell-based; settings: relative to 0 nM = 1
Method: as §1

Schwann cells [3] = assay: BrdU Cell Proliferation ELISA (colorimetric); type: cell-based; settings: relative to 0 nM = 1
Method: as §1

ERK and Akt pathways = assay: Western blot of P-ERK1/2, ERK1/2, P-AKT, AKT in insulin-treated Schwann cells; type: cell-based; settings: 100 nM insulin, 24 hours
Method: After the cultured Schwann cells were treated with 100 nM insulin protein, the cells were harvested after 24 hours, and then the pellets were added in RIPA buffer, and the cells were disrupted using a sonicator and then centrifuged at 13,000 rpm at 4° C. for 15 minutes. Only the supernatant was subjected to protein quantification, and then 30 μg of proteins was loaded onto SDS-PAGE gel. Thereafter, the gel loaded on PVDF was transferred and then blocked with 5% skim milk for 1 hour, and then P-ERK1/2, ERK1/2, P-AKT, AKT, and β-actin antibodies were attached thereto at 4° C. for 24 hours. After the HRP-linked secondary antibody reaction and the washing process were performed, the bands of proteins were checked by using ECL solution.

[4] = tested on: Charcot-Marie-Tooth disease mice; assay: Rotarod testing in Charcot-Marie-Tooth disease mice; type: in vivo
Text: 5-Week-old Charcot-Marie-Tooth disease mice were intravenously administered with 12 U/kg insulin and, after two weeks, examined for behavioral performance increase through rotarod testing as in Example 5.

[5] = tested on: Charcot-Marie-Tooth disease mice; assay: Grip strength testing in Charcot-Marie-Tooth disease mice; type: in vivo; settings: 5-week-old CMT mice, 12 U/kg intravenously, after two weeks; WT 8.9, sham 6.2
Text: 5-Week-old Charcot-Marie-Tooth disease mice were intravenously administered with 12 U/kg insulin and, after two weeks, examined for behavioral performance increase through grip strength testing as in Example 5.

PMP22 = PMP22 gene expression in sciatic nerve tissue by qRT-PCR; type: in vivo, mice
Method: In addition, it was examined using qRT-PCR analysis whether specific genes observable in each type of differentiated cells were expressed in differentiated adipocytes and chondrocytes. Non-differentiated cells and differentiated cells were harvested and the total RNA was extracted from the cell pellets using TRIZOL. The pellets were completely dissolved in 1 mL of TRIZOL, and then 0.2 mL of chloroform was added thereto, followed by shaking for 15 seconds and then standing at room temperature for 3 minutes. The resultant product was then separated into the bottom layer phenol-chloroform, the intermediate layer, and the upper layer colorless aqueous solution by centrifugation at 13,000 rpm and 4° C. for 15 minutes, and of these, only the upper layer colorless aqueous solution was separately collected and transferred into a new tube. After 0.5 mL of isopropyl alcohol was added to the tube and then vigorously mixed, the mixture was left at room temperature for 5 minutes. The resultant solution was again centrifuged at 13,000 rpm and 4° C. for 10 minutes, and the supernatant was discarded. Thereafter, 75% ethanol was added to pellets and again vigorously mixed, followed by centrifugation. The upper layer was discarded, and RNA pellets were dried for 5-10 minutes and dissolved in RNase-free water. […]

[6] = tested on: Charcot-Marie-Tooth disease mice; assay: Myelination of sciatic nerve tissue by transmission electron microscope; type: in vivo
Text: 5-Week-old Charcot-Marie-Tooth disease mice were intravenously administered with 12 U/kg insulin, and after two weeks, the sciatic nerve tissue was collected and observed by the same method as in the histological analysis through a transmission electron microscope in Example 7, and the results are shown in FIGS. 8A to 8C and Tables 12 and 13.

MPZ [7] = assay: MPZ in sciatic nerve tissue by confocal microscope; type: in vivo, mice; settings: 12 U/kg intravenously, after two weeks, WT = 1, sham 0.20
Text: 5-Week-old Charcot-Marie-Tooth disease mice were intravenously administered with 12 U/kg insulin, and after two weeks, the sciatic nerve tissue was collected and observed through a confocal microscope in Example 7, and the results are shown in FIG. 8D and Table 14.

MPZ [8] = assay: MPZ expression level in sciatic nerve tissue by western blotting; type: in vivo, mice; settings: 12 U/kg intravenously, after two weeks, WT = 100, sham 3.84
Method: 5-Week-old Charcot-Marie-Tooth disease mice were intravenously administered with 12 U/kg insulin, and after two weeks, the sciatic nerve tissue was collected and then the MPZ expression level was determined using MPZ antibody by the same method as in protein expression analysis through western blotting in Example 3, and the results are shown in FIGS. 8F and 8G and Table 15.

Dystrophin = assay: Myogenesis of gastrocnemius muscle tissue, dystrophin fluorescent antibody; type: in vivo, mice
Method: 5-Week-old Charcot-Marie-Tooth disease mice were intravenously administered with 12 U/kg insulin, and after two weeks, the gastrocnemius muscle tissue was collected. Then, the increase in myogenesis was measured using the dystrophin antibody by the same method as in protein expression analysis using a fluorescent antibody in Example 7, and the results are shown in FIGS. 9A and 9B and Table 16.

[9] = tested on: Charcot-Marie-Tooth disease mice; assay: MRI of gastrocnemius muscle tissue, cross-sectional area and volume; type: in vivo; settings: 12 U/kg intravenously, after two weeks; for CSA: MRI; for Volume: from cross-sectional area
Method: 5-Week-old Charcot-Marie-Tooth disease mice were intravenously administered with 12 U/kg insulin and, after two weeks, the gastrocnemius muscle tissue was observed by the MRI system. In addition, the cross-sectional area of the muscle tissue was measured to obtain the volume of the muscle tissue, and the results are shown in FIG. 9E and Table 18.

insulin
optimum concentration for increasing the proliferation capacity of Schwann cells (Schwann cells [1]; from CCK-8, ATP and BrdU tests, 0-1000 nM): 100 nM
CCK-8 (Schwann cells [1]; insulin 1 nM): 1.03
CCK-8 (Schwann cells [1]; insulin 10 nM): 1.09
CCK-8 (Schwann cells [1]; insulin 50 nM): 1.16
CCK-8 (Schwann cells [1]; insulin 100 nM): 1.18
CCK-8 (Schwann cells [1]; insulin 200 nM): 1.19
CCK-8 (Schwann cells [1]; insulin 500 nM): 1.21
CCK-8 (Schwann cells [1]; insulin 1000 nM): 1.21
ATP (Schwann cells [2]; insulin 1 nM): 1.08
ATP (Schwann cells [2]; insulin 10 nM): 1.13
ATP (Schwann cells [2]; insulin 50 nM): 1.20
ATP (Schwann cells [2]; insulin 100 nM): 1.23
ATP (Schwann cells [2]; insulin 200 nM): 1.18
ATP (Schwann cells [2]; insulin 500 nM): 1.22
ATP (Schwann cells [2]; insulin 1000 nM): 1.06
BrdU (Schwann cells [3]; insulin 1 nM): 1.13
BrdU (Schwann cells [3]; insulin 10 nM): 1.32
BrdU (Schwann cells [3]; insulin 50 nM): 1.39
BrdU (Schwann cells [3]; insulin 100 nM): 1.51
BrdU (Schwann cells [3]; insulin 200 nM): 1.50
BrdU (Schwann cells [3]; insulin 500 nM): 1.36
BrdU (Schwann cells [3]; insulin 1000 nM): 1.44
activation of proliferation potency of Schwann cells through ERK and Akt pathways (ERK and Akt pathways): activated the proliferation potency of Schwann cells through ERK and Akt pathways
Rotarod ([4]; 5-week-old CMT mice, 12 U/kg intravenously, after two weeks, WT 112.3, sham 27.8): 67.9
behavioral performance of the mice ([4]; rotarod and grip strength, in words): increased the behavioral performance
Grip Strength [5]: 7.7
PMP22 expression levels (PMP22; in words): reduced the PMP22 expression levels
PMP22 (PMP22; sciatic nerve, 12 U/kg intravenously, after two weeks, WT = 1, sham 1305.36): 986.69
myelination ([6]; in words, FIGS. 8A to 8G): increased myelination
myelination ([6]; sciatic nerve, TEM, 12 U/kg intravenously, after two weeks, WT = 100, sham 13.59): 82.99
Thickness ([6]; thickness of myelination, sciatic nerve, TEM, 12 U/kg intravenously, after two weeks, WT 3.32, sham 0.67): 2.53
MPZ (MPZ [7]): 0.69
MPZ (MPZ [8]): 44.12
Dystrophin (Dystrophin; gastrocnemius muscle, 12 U/kg intravenously, after two weeks, WT = 1, sham 0.27): 0.94
myogenesis (Dystrophin; in words, FIGS. 9A to 9E): increased myogenesis
CSA ([9]; Left gastrocnemius muscle, sham 0.302): 0.343
Volume ([9]; Left gastrocnemius muscle, sham 2.533): 2.879
CSA ([9]; Right gastrocnemius muscle, sham 0.290): 0.323
Volume ([9]; Right gastrocnemius muscle, sham 2.438): 2.712
